PMC3831368 (Bioorganic & medicinal chemistry, 2013)

Columns and labels:
morphine antinociception = details: cited from earlier work
MOR [1] = target: T1, MOR (Mus musculus, UniProt P42866); details: in vitro radioligand competition binding; cited from earlier work
MOR [2] = target: T1, MOR; details: cited from earlier work
W318A MOR = W318A MOR (Mus musculus, UniProt P42866, W318A); experiment: Competition binding to site-directed mutated MOR W318A; details: read-out: W318A MOR IC50; ± SEM; transient CHO cells
W318A MOR, sequence (P42866 whole entry W318A): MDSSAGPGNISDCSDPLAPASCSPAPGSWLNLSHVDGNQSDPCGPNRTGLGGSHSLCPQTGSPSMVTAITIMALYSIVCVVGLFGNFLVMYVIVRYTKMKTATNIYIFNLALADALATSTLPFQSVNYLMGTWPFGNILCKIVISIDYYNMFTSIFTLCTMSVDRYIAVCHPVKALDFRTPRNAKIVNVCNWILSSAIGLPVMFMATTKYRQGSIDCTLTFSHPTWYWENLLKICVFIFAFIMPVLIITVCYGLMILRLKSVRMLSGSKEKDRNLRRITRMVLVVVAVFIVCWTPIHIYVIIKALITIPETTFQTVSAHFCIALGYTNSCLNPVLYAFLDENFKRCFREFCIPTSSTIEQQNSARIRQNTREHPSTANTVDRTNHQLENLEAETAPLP

T1 sequence (P42866 whole entry): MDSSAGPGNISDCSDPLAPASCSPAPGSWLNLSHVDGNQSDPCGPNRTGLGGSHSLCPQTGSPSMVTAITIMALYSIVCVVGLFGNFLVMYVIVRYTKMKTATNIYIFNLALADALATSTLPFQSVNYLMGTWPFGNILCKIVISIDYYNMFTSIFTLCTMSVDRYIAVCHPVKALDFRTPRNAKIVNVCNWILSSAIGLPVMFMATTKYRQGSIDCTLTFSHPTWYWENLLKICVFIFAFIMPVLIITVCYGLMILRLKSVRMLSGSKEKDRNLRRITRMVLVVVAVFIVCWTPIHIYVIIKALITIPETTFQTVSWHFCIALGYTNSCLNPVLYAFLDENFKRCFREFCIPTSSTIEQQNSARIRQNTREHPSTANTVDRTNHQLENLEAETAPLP

Compound | antagonism in in vivo antinociceptive test against morphine (morphine antinociception) | affinity for the MOR (MOR [1]) | agonism in the in vitro GTPγS assay (MOR [2]) | IC50 (W318A MOR) [µM]
O=C(N[C@@H]1CC[C@@]2(O)[C@H]3Cc4ccc(O)c5c4[C@@]2(CCN3CC2CC2)[C@H]1O5)c1ccncc1 [NAP] | potent antagonism | sub-nanomolar | marginal partial agonism | –
O=C(N[C@H]1CC[C@@]2(O)[C@H]3Cc4ccc(O)c5c4[C@@]2(CCN3CC2CC2)[C@H]1O5)c1cc2ccccc2cn1 [NAQ] | potent antagonism | sub-nanomolar | marginal partial agonism | > 1
